ChEMBL document CHEMBL5107956, “Natural products from mangrove sediments-derived microbes: Structural diversity, bioactivities, biosynthesis, and total synthesis” (Eur J Med Chem, 2022)
Converted amounts (≈) assume the structure as drawn.

Experiments:
A-375 = assay: Cytotoxicity against human A-375 cells assessed as cell growth inhibition by MTT assay; format: functional, cell-based
A549 [1] = assay: Cytotoxicity against human A549 cells assessed as cell growth inhibition by MTT assay; format: functional, cell-based
HepG2 = assay: Cytotoxicity against human HepG2 cells assessed as cell growth inhibition by MTT assay; format: functional, cell-based
MCF7 = assay: Cytotoxicity against human MCF7 cells assessed as cell growth inhibition by MTT assay; format: functional, cell-based
P388 = assay: Cytotoxicity against mouse P388 cells assessed as cell growth inhibition measured after 72 hrs by MTT assay; format: functional, cell-based
[2] = Antioxidant activity assessed as free radical scavenging activity incubated for 30 mins under dark condition by microplate reader analysis; format: functional
Staphylococcus aureus = assay: Antibacterial activity against Staphylococcus aureus ATCC 25923 assessed as bacterial growth inhibition; format: functional, organism-based
[3] = Antioxidant activity assessed as free radical scavenging activity incubated for 30 mins by microplate reader analysis; format: functional
[4] = Antiproliferative activity against human Pancreatic cancer cell assessed as cell growth inhibition measured after 24 hrs by CCK-8 assay; format: functional, cell-based
A549 [5] = assay: Cytotoxicity against human A549 cells assessed as cell growth inhibition incubated for 48 hrs by CCK-8 assay; format: functional, cell-based; details: A549, 48 h
HCT-116 = assay: Cytotoxicity against human HCT-116 cells assessed as cell growth inhibition incubated for 48 hrs by CCK-8 assay; format: functional, cell-based; details: HCT-116, 48 h
HL-60 = assay: Cytotoxicity against human HL-60 cells assessed as cell growth inhibition measured after 72 hrs by MTT assay; format: functional, cell-based; details: HL-60, 72 h
A549 [6] = assay: Cytotoxicity against human A549 cells assessed as cell growth inhibition measured after 72 hrs by MTT assay; format: functional, cell-based; details: A549, 72 h
[7] = biological target: Prostaglandin G/H synthase 2 (Homo sapiens) (UniProt P35354); assay: Inhibition of COX2 (unknown origin) at 20 nM relative to control
Chain of Prostaglandin G/H synthase 2 (Homo sapiens) (P35354 whole entry, looked up): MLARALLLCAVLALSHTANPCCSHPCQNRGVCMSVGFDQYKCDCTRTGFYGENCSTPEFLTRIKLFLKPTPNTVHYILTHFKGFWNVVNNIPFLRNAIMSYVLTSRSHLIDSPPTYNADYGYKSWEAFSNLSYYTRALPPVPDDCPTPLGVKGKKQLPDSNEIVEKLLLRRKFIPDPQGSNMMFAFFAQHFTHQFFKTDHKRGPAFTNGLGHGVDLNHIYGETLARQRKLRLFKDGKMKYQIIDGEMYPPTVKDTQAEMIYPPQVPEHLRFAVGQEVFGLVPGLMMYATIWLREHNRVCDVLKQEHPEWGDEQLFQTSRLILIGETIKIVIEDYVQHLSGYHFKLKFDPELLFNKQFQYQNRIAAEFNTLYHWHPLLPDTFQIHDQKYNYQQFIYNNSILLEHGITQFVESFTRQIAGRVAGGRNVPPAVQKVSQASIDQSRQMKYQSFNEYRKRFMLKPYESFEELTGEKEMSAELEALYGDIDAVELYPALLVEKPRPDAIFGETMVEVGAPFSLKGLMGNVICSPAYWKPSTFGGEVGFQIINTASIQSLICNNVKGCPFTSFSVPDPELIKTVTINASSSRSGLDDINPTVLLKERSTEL

COc1ccc(C[C@@H]2NC(=O)[C@@]34OC(=O)O/C=C/[C@@](C)(O)C(=O)[C@@H](C)C/C=C/[C@H]3[C@@H]3O[C@]3(C)[C@@H](C)[C@@H]24)cc1
IC50 (A-375): 470 nM
IC50 (A549 [1]): 470 nM
IC50 (HepG2): 470 nM
IC50 (MCF7): 470 nM

COc1ccc(C[C@@H]2NC(=O)[C@@]34OC(=O)O/C=C/[C@@](C)(O)C(=O)[C@@H](C)C/C=C/[C@H]3C(O)C(C)=C(C)[C@@H]24)cc1 (stereo partly drawn)
IC50 (A-375): 470 nM
IC50 (A549 [1]): 470 nM
IC50 (HepG2): 470 nM
IC50 (MCF7): 470 nM

C=CC(C)(C)c1[nH]c2ccccc2c1/C=C1\NC(=O)[C@]2(C[C@H](C)C=C[C@@H]2CCc2c(O)cc(CC=C(C)C)c(O)c2C=O)NC1=O (stereo in doubt; 251)
IC50 (P388; Mus musculus, P388, 72 h): 3430 nM

C/C=C/C=C/CCc1c(O)ccc(O)c1CO
IC50 [2]: 9300 nM

CCOC(=O)[C@]1(Cc2ccc(O)c(CC3OC3(C)C)c2)OC(=O)C(O)C1c1ccc(O)cc1 (stereo partly drawn)
IC50 (Staphylococcus aureus): 21300 nM

O=C(NCCCO)c1ccc(O)c(O)c1
IC50 [3]: 4700 nM

CCCC1C(=O)C2CCC3(C)CC(C)C(O3)C(O)/C=C(\C)C(=O)CC1OC2=O (stereo not drawn)
IC50 [2]: 2400 nM

C=CC(C)(C)c1[nH]c2ccccc2c1/C=C1\NC(=O)[C@]2(C[C@H](C)C=C[C@@H]2CCc2c(O)cc(CC=C(C)C)c(O)c2C=O)NC1=O (stereo in doubt)
IC50 (P388; p388): 2500 nM

CC[C@H]1[C@H]2[C@H](C[C@H]1C)[C@H]1C[C@H]3/C=C/C(=O)C4=C(O)[C@@H](CCCNC(=O)/C=C\C[C@@H]3[C@H]1[C@@H]1O[C@@H]12)NC4=O
IC50 [4]: 1300 nM

C/C=C/C=C/CCc1c(O)ccc(O)c1COC
IC50 [2]: 17600 nM

CC1=CC(=O)[C@H]2C(C)(C)CCC[C@]2(C)[C@@]1(O)C=O
IC50 (P388; Mus musculus, P388, 72 h): 8700 nM

C[C@@H]1O[C@@H](Oc2ccc(-c3cc(=O)c4ccc(O[C@H]5C[C@H](O)[C@H](O)[C@H](C)O5)cc4o3)cc2)C[C@H](O)[C@@H]1O
IC50 (A549 [5]): 13.5 µg/mL (≈ 26.2 µM)
IC50 (HCT-116): 13.5 µg/mL

O=C1O/C(=C\c2ccc(O)cc2)C(O)=C1c1ccc(O)cc1 [ASPULVINONE E]
IC50 (Staphylococcus aureus): 26100 nM

C=C1C(=O)CC2OC(=O)C(=C(O)C2CC)CCC2(C)CC(C)C(O2)C(C)C1OC (stereo not drawn)
IC50 [2]: 2400 nM

O=C(NCCCCO)c1ccc(O)c(O)c1
IC50 [3]: 4700 nM

CC1(C)C=Cc2c(ccc3c4c(n(O)c23)C(C)(C)[C@H]2C[C@]35CCCN3C(=O)[C@@]2(C4)NC5=O)O1
IC50 (HL-60): 4450 nM
IC50 (A549 [6]): 1880 nM

COC(C)[C@H]1[C@H]2[C@H](C[C@H]1C)[C@H]1C[C@H]3/C=C/C(=O)C4=C(O)[C@@H](CCCNC(=O)/C=C\C[C@@H]3[C@H]1[C@@H]1O[C@@H]12)NC4=O (stereo partly drawn)
IC50 [4]: 1300 nM

CC(=O)OCCCCNC(=O)c1ccc(O)c(O)c1
IC50 [3]: 4700 nM

C=C1CCC(C(C)C)C2/C=C(\C(=O)OC)CC/C=C(/C(=O)O)C(O)CC12 (stereo not drawn)
IC50 (HCT-116): 38400 nM

O=C(O)CCCNC(=O)c1ccc(O)c(O)c1
IC50 [3]: 4700 nM

CC1(C)C=Cc2c(ccc3c2[N+]([O-])=C2C3=C[C@@]34NC(=O)[C@]5(CCCN5C3=O)C[C@@H]4C2(C)C)O1
IC50 (HL-60): 3020 nM
IC50 (A549 [6]): 1920 nM

O=C1OC(Cc2ccc(O)cc2)C(c2ccc(O)cc2)C1O (stereo not drawn)
IC50 (Staphylococcus aureus): 17400 nM

CC[C@H]1[C@@H]2C=C[C@@H]3[C@H]4C/C=C\C(=O)NCCC[C@H]5NC(=O)C(=C5O)C(=O)/C=C/[C@@H]4C[C@@H]3[C@H]2C[C@H]1C
IC50 [4]: 1300 nM

C[C@@H]1O[C@@H](Oc2ccc(C3COc4cc(O)ccc4C3=O)cc2)C[C@H](O)[C@@H]1O (stereo partly drawn)
IC50 (A549 [5]): 13.5 µg/mL (≈ 34.9 µM)
IC50 (HCT-116): 13.5 µg/mL

C=CC(C)(C)c1[nH]c2ccccc2c1/C=C1\NC(=O)[C@@]2(C[C@@H](C)C=C[C@@H]2/C=C/c2c(O)cc(CC=C(C)C)c(O)c2C=O)NC1=O
IC50 (P388; Mus musculus, P388, 72 h): 11300 nM

CCOC(=O)[C@]1(Cc2ccccc2)OC(=O)C(O)C1c1ccc(O)cc1 (stereo partly drawn)
inhibition [7]: 98.3%

C[C@@H]1O[C@@H](Oc2ccc3c(c2)OCC(c2ccc(O)cc2)C3=O)C[C@H](O)[C@@H]1O (stereo partly drawn)
IC50 (A549 [5]): 13.5 µg/mL (≈ 34.9 µM)
IC50 (HCT-116): 13.5 µg/mL
